This is an account of results in ChEMBL document CHEMBL5331117, “X-Ray Conformation and Structure-Activity Relationships of MA026, a Reversible Tight Junction Opener” (J Med Chem, 2023).

The first experiment concerns MDCK-II. The experiment in a line: Induction of claudin-1 mediated tight junction opening in MDCK-II cells assessed as increase in FITC-conjugated dextran incubated for 5 hrs relative to control. The experiment is classed as cell-based. Further details: concentration or dose not given beside the values. Conditions: Canis lupus familiaris.
`CCCCCCCCCC(=O)N[C@@H](CC(C)C)C(=O)N[C@H](CCC(=O)O)C(=O)N[C@H](CCC(N)=O)C(=O)N[C@@H](C(=O)N[C@H](CC(C)C)C(=O)N[C@@H](CCC(N)=O)C(=O)N[C@@H]1COC(=O)[C@H]([C@@H](C)CC)NC(=O)[C@@H](CCC(N)=O)NC(=O)[C@H](CC(C)C)NC(=O)[C@H](CC(C)C)NC(=O)[C@@H](CCC(N)=O)NC(=O)[C@H](CC(C)C)NC(=O)[C@@H](C(C)C)NC1=O)C(C)C`: the Activity was 3.8%. For `CCCCCCCCCC(=O)N[C@@H](CC(C)C)C(=O)N[C@H](CCC(=O)O)C(=O)N[C@H](CCC(N)=O)C(=O)N[C@@H](C(=O)N[C@H](CC(C)C)C(=O)N[C@@H](CCC(N)=O)C(=O)N[C@@H]1COC(=O)[C@@H]([C@@H](C)CC)NC(=O)[C@@H](CCC(N)=O)NC(=O)[C@H](CC(C)C)NC(=O)[C@H](CC(C)C)NC(=O)[C@@H](CCC(N)=O)NC(=O)[C@@H](CC(C)C)NC(=O)[C@@H](C(C)C)NC1=O)C(C)C`, the Activity came to 18.3%. Still for that read-out and setting: for `CCCCCCCCCC(=O)N[C@@H](CC(C)C)C(=O)N[C@H](CCC(=O)O)C(=O)N[C@H](CCC(N)=O)C(=O)N[C@@H](C(=O)N[C@H](CC(C)C)C(=O)N[C@@H](CCC(N)=O)C(=O)N[C@H]1COC(=O)[C@H]([C@@H](C)CC)NC(=O)[C@@H](CCC(N)=O)NC(=O)[C@H](CC(C)C)NC(=O)[C@H](CC(C)C)NC(=O)[C@@H](CCC(N)=O)NC(=O)[C@@H](CC(C)C)NC(=O)[C@@H](C(C)C)NC1=O)C(C)C` the value was 2.3%. Take `CCCCCCCCCC(=O)N[C@@H](CC(C)C)C(=O)N[C@H](CCC(=O)O)C(=O)N[C@H](CCC(N)=O)C(=O)N[C@@H](C(=O)N[C@H](CC(C)C)C(=O)N[C@@H](CCC(N)=O)C(=O)N[C@@H]1COC(=O)[C@H]([C@@H](C)CC)NC(=O)[C@@H](CCC(N)=O)NC(=O)[C@H](CC(C)C)NC(=O)[C@H](CC(C)C)NC(=O)[C@@H](CCC(N)=O)NC(=O)[C@@H](CC(C)C)NC(=O)[C@H](C(C)C)NC1=O)C(C)C`: the Activity amounted to 0.4%. As for `CCCCCCCCCC(=O)N[C@@H](CC(C)C)C(=O)N[C@H](CCC(=O)O)C(=O)N[C@H](CCC(N)=O)C(=O)N[C@H](C(=O)N[C@H](CC(C)C)C(=O)N[C@@H](CCC(N)=O)C(=O)N[C@@H]1COC(=O)[C@H]([C@@H](C)CC)NC(=O)[C@@H](CCC(N)=O)NC(=O)[C@H](CC(C)C)NC(=O)[C@H](CC(C)C)NC(=O)[C@@H](CCC(N)=O)NC(=O)[C@@H](CC(C)C)NC(=O)[C@@H](C(C)C)NC1=O)C(C)C`, the Activity came to 8.6%. As to `CCCCCCC[C@@H](O)CC(=O)N[C@@H](CC(C)C)C(=O)N[C@H](CCC(=O)O)C(=O)N[C@H](CCC(N)=O)C(=O)N[C@@H](C(=O)N[C@H](C)C(=O)N[C@@H](CCC(N)=O)C(=O)N[C@@H]1COC(=O)[C@H]([C@@H](C)CC)NC(=O)[C@@H](CCC(N)=O)NC(=O)[C@H](CC(C)C)NC(=O)[C@H](CC(C)C)NC(=O)[C@@H](CCC(N)=O)NC(=O)[C@@H](CC(C)C)NC(=O)[C@@H](C(C)C)NC1=O)C(C)C`, the Activity was 9.2%. For the compound `CCCCCCC[C@@H](O)CC(=O)N[C@@H](C)C(=O)N[C@H](CCC(=O)O)C(=O)N[C@H](CCC(N)=O)C(=O)N[C@@H](C(=O)N[C@H](CC(C)C)C(=O)N[C@@H](CCC(N)=O)C(=O)N[C@@H]1COC(=O)[C@H]([C@@H](C)CC)NC(=O)[C@@H](CCC(N)=O)NC(=O)[C@H](CC(C)C)NC(=O)[C@H](CC(C)C)NC(=O)[C@@H](CCC(N)=O)NC(=O)[C@@H](CC(C)C)NC(=O)[C@@H](C(C)C)NC1=O)C(C)C`, the Activity is 31.8%.

As to `CCCCCCC[C@@H](O)CC(=O)N[C@@H](CC(C)C)C(=O)N[C@H](CCC(=O)O)C(=O)N[C@H](CCC(N)=O)C(=O)N[C@H](C)C(=O)N[C@H](CC(C)C)C(=O)N[C@@H](CCC(N)=O)C(=O)N[C@@H]1COC(=O)[C@H]([C@@H](C)CC)NC(=O)[C@@H](CCC(N)=O)NC(=O)[C@H](CC(C)C)NC(=O)[C@H](CC(C)C)NC(=O)[C@@H](CCC(N)=O)NC(=O)[C@@H](CC(C)C)NC(=O)[C@@H](C(C)C)NC1=O`, the Activity was found to be 14.4%.

For `CCCCCCC[C@@H](O)CC(=O)N[C@@H](CC(C)C)C(=O)N[C@H](CCC(=O)O)C(=O)N[C@H](CCC(N)=O)C(=O)N[C@@H](C(=O)N[C@H](CC(C)C)C(=O)N[C@@H](CCC(N)=O)C(=O)N[C@@H]1COC(=O)[C@H]([C@@H](C)CC)NC(=O)[C@@H](CCC(N)=O)NC(=O)[C@H](C)NC(=O)[C@H](CC(C)C)NC(=O)[C@@H](CCC(N)=O)NC(=O)[C@@H](CC(C)C)NC(=O)[C@@H](C(C)C)NC1=O)C(C)C`, the Activity was 9.8%. For `CCCCCCC[C@@H](O)CC(=O)N[C@@H](CC(C)C)C(=O)N[C@H](CCC(=O)O)C(=O)N[C@H](CCC(N)=O)C(=O)N[C@@H](C(=O)N[C@H](CC(C)C)C(=O)N[C@@H](CCC(N)=O)C(=O)N[C@@H]1COC(=O)[C@H]([C@@H](C)CC)NC(=O)[C@@H](CCC(N)=O)NC(=O)[C@H](CC(C)C)NC(=O)[C@H](C)NC(=O)[C@@H](CCC(N)=O)NC(=O)[C@@H](CC(C)C)NC(=O)[C@@H](C(C)C)NC1=O)C(C)C`, the Activity was found to be 12.7%.

The same experiment, now with this note: Canis lupus familiaris, filed as opener.
In the case of `CCCCCCCCCC(=O)N[C@@H](CC(C)C)C(=O)N[C@H](CCC(=O)O)C(=O)N[C@H](CCC(N)=O)C(=O)N[C@@H](C(=O)N[C@H](CC(C)C)C(=O)N[C@@H](CCC(N)=O)C(=O)N[C@@H]1COC(=O)[C@H]([C@@H](C)CC)NC(=O)[C@@H](CCC(N)=O)NC(=O)[C@H](CC(C)C)NC(=O)[C@H](CC(C)C)NC(=O)[C@@H](CCC(N)=O)NC(=O)[C@@H](CC(C)C)NC(=O)[C@@H](C(C)C)NC1=O)C(C)C`, the Activity was 174%. As to `CCCCCCC[C@@H](O)CC(=O)N[C@@H](CC(C)C)C(=O)N[C@H](CCC(=O)O)C(=O)N[C@H](CCC(N)=O)C(=O)N[C@@H](C(=O)N[C@H](CC(C)C)C(=O)N[C@@H](C)C(=O)N[C@@H]1COC(=O)[C@H]([C@@H](C)CC)NC(=O)[C@@H](CCC(N)=O)NC(=O)[C@H](CC(C)C)NC(=O)[C@H](CC(C)C)NC(=O)[C@@H](CCC(N)=O)NC(=O)[C@@H](CC(C)C)NC(=O)[C@@H](C(C)C)NC1=O)C(C)C`, the Activity is 94.8%.

For the compound `CCCCCCC[C@@H](O)CC(=O)N[C@@H](CC(C)C)C(=O)N[C@H](CCC(=O)O)C(=O)N[C@H](CCC(N)=O)C(=O)N[C@@H](C(=O)N[C@H](CC(C)C)C(=O)N[C@@H](CCC(N)=O)C(=O)N[C@@H]1COC(=O)[C@H]([C@@H](C)CC)NC(=O)[C@@H](CCC(N)=O)NC(=O)[C@H](CC(C)C)NC(=O)[C@H](CC(C)C)NC(=O)[C@@H](C)NC(=O)[C@@H](CC(C)C)NC(=O)[C@@H](C(C)C)NC1=O)C(C)C`, the Activity was 85.3%. Consider `CCCCCCCCCC(=O)N[C@H](CC(C)C)C(=O)N[C@H](CCC(=O)O)C(=O)N[C@H](CCC(N)=O)C(=O)N[C@@H](C(=O)N[C@H](CC(C)C)C(=O)N[C@@H](CCC(N)=O)C(=O)N[C@@H]1COC(=O)[C@H]([C@@H](C)CC)NC(=O)[C@@H](CCC(N)=O)NC(=O)[C@H](CC(C)C)NC(=O)[C@H](CC(C)C)NC(=O)[C@@H](CCC(N)=O)NC(=O)[C@@H](CC(C)C)NC(=O)[C@@H](C(C)C)NC1=O)C(C)C`, for which the Activity came to 56.8%.
